According to ChEMBL document CHEMBL3507680, “University of Dundee, Gates Library screen for HepG2 cell viability”:

Experiment: Human HepG2 cell viability assay in 384 well format
Assay type: toxicity, cell-based
Parameters: dose 125 nL, time 70.5 hour; concentration not given beside the values
Settings: HepG2 cells, read-out: Inhibition

| Compound | cytotoxicity at 70.5 h |
| --- | --- |
| CC1CCCN(C(=O)CCNS(=O)(=O)c2cccnc2)C1 (configuration not stated) | 1.82% |
| COc1ncccc1CN1CC[C@H]2O[C@@H](c3nnc(C)o3)CC[C@H]21 | -6.07% |
| CC1CN(CCc2ccccn2)CCN1c1ccc2nncn2n1 (configuration not stated) | -3.22% |
| Cc1cc(C(=O)N2CCC3(C2)CN(c2ccsc2)C(=O)CN3C)[nH]n1 (configuration not stated) | -7.61% |
| CC(C)n1ccc(-c2cc(C(=O)N3CCCC3)c3ccccn23)n1 | 39.5% |
| CC[C@H]1CN2CC[C@H]1C[C@@H]2CNC(=O)Nc1cc(OC)cc(OC)c1 | 0.42% |
| Cc1n[nH]c(=O)c2c(NC(=O)CN3CCC(C)CC3)oc(C)c12 | -10.7% |
| COc1ncccc1NC(=O)N1CCC(CN2CCOCC2)CC1 | -6.27% |
| O=C(NC1CCN(c2ncccc2F)C1)c1cccc(-n2ccnc2)c1 (configuration not stated) | -9.37% |
| COc1ccccc1-c1noc(CCC(=O)NC(C)Cn2cccn2)n1 (configuration not stated) | -3.38% |
| Cc1oc(-c2ccsc2)nc1CC(=O)NCC(C)(C)CN(C)C | -9.09% |
| CCCc1n[nH]c(C2CN(C(=O)c3cccnc3N(C)C)CCO2)n1 (configuration not stated) | -0.878% |
| CNC(=O)N1Cc2cc(F)ccc2C2(CCN(C)CC2)C1 | -1.35% |
| C[C@H](c1ccc(F)cc1)n1c(C2CCN(C)CC2)n[nH]c1=O | 19.4% |
| Cc1cc(C)n(CC2CCCN2Cc2cscn2)n1 (configuration not stated) | 5.49% |
| CC(Cn1cccn1)NCc1csc(-c2cccs2)n1 (configuration not stated) | -26% |
| CN(CCN1CCCC1=O)S(=O)(=O)CC1CCCC1 | -4.62% |
| COCC(=O)N1CCCC(Cc2cnc(-c3c(C)n[nH]c3C)cn2)C1 (configuration not stated) | 0.347% |
| CN(C)C(=O)CCS(=O)(=O)Cc1cc(Cl)c2c(c1)OCCO2 | -6.03% |

| Compound | cytotoxicity at 70.5 h |
| --- | --- |
| NC(C(=O)N1CCSc2ccccc2C1)c1ccccc1 (configuration not stated) | 2.56% |
| COc1ccc(C(C)NCc2c[nH]nc2C)cc1Br (configuration not stated) | -6.07% |
| O=C(c1ccc(=O)[nH]c1)N1CCC(Oc2cccc(C(F)(F)F)c2)CC1 | 3.69% |
| Cc1[nH]nc(CCC(=O)N2CCc3ncnc(NCCO)c3CC2)c1C | -12.5% |
| O=C(c1ccoc1)N1CCC2(CC1)C(=O)Nc1ccccc12 | -2.01% |
| CCCC(C#N)NC(=O)c1cc(Br)c2c(c1)OCCO2 (configuration not stated) | -11.4% |
| Cc1ccc(S(=O)(=O)NCCCN2CCC(O)CC2)c(F)c1 | 18.4% |
| CCOCC(O)c1nc2c([nH]1)CC(C)(C)CNC2=O (configuration not stated) | -11.8% |
| O=C(NCc1ccc(-n2cncn2)nc1)c1cnccn1 | 7.67% |
| CCOC(C)c1noc(CN2CCCN(c3ccccn3)CC2)n1 (configuration not stated) | -12.6% |
| Cc1cc2nc(O)c(O)nc2cc1S(=O)(=O)NC1CC1 | -12.3% |
| O=C(CNC(=O)C1(c2ccc(F)cc2F)CCC1)Nc1ccccn1 | -3.32% |
| CN1CCO[C@@H]2CN(C(=O)COc3cccc(Cl)c3)C[C@@H]2C1 | 4.28% |
| CCc1csc(C2CCCN(C(=O)c3ccc4[nH]nnc4c3)C2)n1 (configuration not stated) | -0.976% |
| O=C(Cc1ccsc1)N1CCC(Cn2cc(CCO)nn2)CC1 | -14.1% |
| CCS(=O)(=O)c1ncc(CN(C)Cc2ccccc2OC)n1CCOC | -5.74% |
| CCc1cn[nH]c1C1CCN(c2cc(C)c3cc(OC)ccc3n2)CC1 | 1.76% |
| CCOC(=O)c1n[nH]cc1-c1cncn1CCn1nc(C)c(C)c1C | -6.65% |
| CN(C)C(=O)CCS(=O)(=O)Cc1cc(Cl)c2c(c1)OCO2 | -3.5% |

| Compound | cytotoxicity at 70.5 h |
| --- | --- |
| COCCN1CCN(CC(=O)N(C)Cc2ccc(F)cc2)CC1C (configuration not stated) | 23.3% |
| CC(C)NC(=O)[C@]12COC[C@H]1CN(Cc1cnn(C)c1)C2 | -4.74% |
| CC1(C)CN(CC(F)(F)F)CCN1CC(=O)N1CCCCC1 | 11.7% |
| c1cncc(CNc2cccc(OCCN3CCCCC3)c2)c1 | -11.5% |
| Cc1ccc(S(=O)(=O)N2CCC(N3CCCCC3)CC2)cc1C | 5.06% |
| CCn1nccc1CNc1nc(N)nc2c1nc(C)n2C | 6.56% |
| Cn1cc(C(O)CNC(=O)c2sccc2OC(F)F)cn1 (configuration not stated) | -4.33% |
| Cc1nn(C)c(Cl)c1C1CCCN1CC(=O)N1CCCCC1 (configuration not stated) | 26.9% |
| Cn1cc(CN2CCCC(c3nccnc3-c3cccc(F)c3)C2)cn1 (configuration not stated) | 16.1% |
| O=C(CCCc1cn[nH]c1)N1C[C@@H](CN2CCCC2)C[C@H](CO)C1 | -6.82% |
| COc1ccc(-n2ccc(C(=O)NCCn3ccnc3)n2)cc1 | -8.04% |
| CS(=O)(=O)NC1CCCN(Cc2ccc(OCc3ccccn3)cc2)C1 (configuration not stated) | -1.69% |
| O=C(COc1coc(CN2CCCCCC2)cc1=O)c1ccccc1 | 25.4% |
| O=C(c1ccccc1-c1nnn[nH]1)N1CCOC(C(F)(F)F)C1 (configuration not stated) | -9.42% |
| CNC(=O)NC(=O)CNC(CC(F)(F)F)c1ccc(F)cc1 (configuration not stated) | 4.15% |
| CNC(=O)CC1c2cccnc2C(=O)N1Cc1ccccc1 (configuration not stated) | -4.81% |
| CN1CCN(C2CCN(CCOc3ccccc3)CC2)C1=O | -14.7% |
| CCOc1ccccc1N(C)Cc1nccn1C | 4.63% |
| COc1ccc(Br)c(C(=O)NCC2CCN(C(=O)c3ccoc3)CC2)c1 | 0.959% |
